Earlier results, collected in US8324220B2 (priority 2003, dated 2012).

Columns and labels:
neuropathic pain = details: human, in vivo
NaV1.1 = NaV1.1 (Homo sapiens, UniProt P35498); details: read-out: TTX IC50
NaV1.2 = NaV1.2 (Homo sapiens, UniProt Q99250); details: read-out: TTX IC50
NaV1.3 = NaV1.3 (Homo sapiens, UniProt Q9NY46); details: read-out: TTX IC50
NaV1.9 = NaV1.9 (Homo sapiens, UniProt Q9UI33)
NaV1.6 = NaV1.6 (Homo sapiens, UniProt Q9UQD0); details: read-out: TTX IC50
NaV1.5 = NaV1.5 (Homo sapiens, UniProt Q14524)
NaV1.8 = NaV1.8 (Homo sapiens, UniProt Q9Y5Y9)
NaV1.8, sequence (Q9Y5Y9 whole entry, looked up): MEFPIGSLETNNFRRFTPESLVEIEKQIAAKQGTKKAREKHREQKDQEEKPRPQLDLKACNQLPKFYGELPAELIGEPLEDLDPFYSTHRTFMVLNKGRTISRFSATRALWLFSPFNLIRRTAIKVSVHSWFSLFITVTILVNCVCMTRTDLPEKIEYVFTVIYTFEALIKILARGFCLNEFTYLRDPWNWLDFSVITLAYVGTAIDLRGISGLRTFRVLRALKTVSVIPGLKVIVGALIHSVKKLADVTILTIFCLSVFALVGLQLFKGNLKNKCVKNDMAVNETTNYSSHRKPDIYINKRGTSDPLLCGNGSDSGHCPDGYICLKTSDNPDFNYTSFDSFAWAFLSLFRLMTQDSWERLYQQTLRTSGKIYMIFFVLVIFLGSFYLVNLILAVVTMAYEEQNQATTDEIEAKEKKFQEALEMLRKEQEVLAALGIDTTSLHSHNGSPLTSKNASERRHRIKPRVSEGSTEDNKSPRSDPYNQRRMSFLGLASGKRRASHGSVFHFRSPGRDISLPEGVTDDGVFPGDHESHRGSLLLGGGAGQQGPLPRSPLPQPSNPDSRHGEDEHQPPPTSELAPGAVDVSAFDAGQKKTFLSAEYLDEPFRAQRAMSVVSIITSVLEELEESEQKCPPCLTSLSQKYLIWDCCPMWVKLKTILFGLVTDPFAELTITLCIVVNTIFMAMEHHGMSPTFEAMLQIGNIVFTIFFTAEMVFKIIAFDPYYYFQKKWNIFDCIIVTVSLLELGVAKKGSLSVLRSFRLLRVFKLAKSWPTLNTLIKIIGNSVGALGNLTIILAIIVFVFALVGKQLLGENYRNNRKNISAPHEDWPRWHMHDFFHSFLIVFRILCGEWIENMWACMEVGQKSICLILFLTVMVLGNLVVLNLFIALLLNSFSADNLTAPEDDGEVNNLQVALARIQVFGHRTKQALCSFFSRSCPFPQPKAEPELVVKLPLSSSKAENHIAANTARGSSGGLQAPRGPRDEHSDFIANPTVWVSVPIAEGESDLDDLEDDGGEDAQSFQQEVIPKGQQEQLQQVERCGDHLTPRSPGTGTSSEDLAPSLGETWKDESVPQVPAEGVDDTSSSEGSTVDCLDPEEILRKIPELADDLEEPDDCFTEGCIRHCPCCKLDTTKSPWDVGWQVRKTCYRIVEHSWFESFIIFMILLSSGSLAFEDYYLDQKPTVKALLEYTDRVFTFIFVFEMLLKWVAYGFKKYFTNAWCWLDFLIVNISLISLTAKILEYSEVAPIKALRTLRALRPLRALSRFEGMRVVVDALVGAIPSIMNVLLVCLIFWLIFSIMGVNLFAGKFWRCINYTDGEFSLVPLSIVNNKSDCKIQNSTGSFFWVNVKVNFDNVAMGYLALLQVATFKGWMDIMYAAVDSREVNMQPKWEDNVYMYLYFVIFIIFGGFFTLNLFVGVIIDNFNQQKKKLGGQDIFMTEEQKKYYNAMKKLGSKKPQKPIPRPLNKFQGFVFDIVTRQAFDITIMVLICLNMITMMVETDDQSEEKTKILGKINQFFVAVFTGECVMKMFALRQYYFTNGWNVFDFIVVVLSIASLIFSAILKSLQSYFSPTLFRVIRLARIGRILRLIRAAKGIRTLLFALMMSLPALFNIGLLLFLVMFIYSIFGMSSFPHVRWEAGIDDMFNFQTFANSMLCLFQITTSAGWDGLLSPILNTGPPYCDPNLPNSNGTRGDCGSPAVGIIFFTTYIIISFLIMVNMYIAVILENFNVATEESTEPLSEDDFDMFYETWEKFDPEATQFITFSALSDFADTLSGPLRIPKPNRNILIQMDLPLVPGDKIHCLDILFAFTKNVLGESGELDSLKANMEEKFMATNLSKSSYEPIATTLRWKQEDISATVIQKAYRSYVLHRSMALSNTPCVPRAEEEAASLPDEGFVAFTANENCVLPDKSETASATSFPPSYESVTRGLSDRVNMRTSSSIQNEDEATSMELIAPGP

NaV1.9, sequence (Q9UI33 whole entry, looked up): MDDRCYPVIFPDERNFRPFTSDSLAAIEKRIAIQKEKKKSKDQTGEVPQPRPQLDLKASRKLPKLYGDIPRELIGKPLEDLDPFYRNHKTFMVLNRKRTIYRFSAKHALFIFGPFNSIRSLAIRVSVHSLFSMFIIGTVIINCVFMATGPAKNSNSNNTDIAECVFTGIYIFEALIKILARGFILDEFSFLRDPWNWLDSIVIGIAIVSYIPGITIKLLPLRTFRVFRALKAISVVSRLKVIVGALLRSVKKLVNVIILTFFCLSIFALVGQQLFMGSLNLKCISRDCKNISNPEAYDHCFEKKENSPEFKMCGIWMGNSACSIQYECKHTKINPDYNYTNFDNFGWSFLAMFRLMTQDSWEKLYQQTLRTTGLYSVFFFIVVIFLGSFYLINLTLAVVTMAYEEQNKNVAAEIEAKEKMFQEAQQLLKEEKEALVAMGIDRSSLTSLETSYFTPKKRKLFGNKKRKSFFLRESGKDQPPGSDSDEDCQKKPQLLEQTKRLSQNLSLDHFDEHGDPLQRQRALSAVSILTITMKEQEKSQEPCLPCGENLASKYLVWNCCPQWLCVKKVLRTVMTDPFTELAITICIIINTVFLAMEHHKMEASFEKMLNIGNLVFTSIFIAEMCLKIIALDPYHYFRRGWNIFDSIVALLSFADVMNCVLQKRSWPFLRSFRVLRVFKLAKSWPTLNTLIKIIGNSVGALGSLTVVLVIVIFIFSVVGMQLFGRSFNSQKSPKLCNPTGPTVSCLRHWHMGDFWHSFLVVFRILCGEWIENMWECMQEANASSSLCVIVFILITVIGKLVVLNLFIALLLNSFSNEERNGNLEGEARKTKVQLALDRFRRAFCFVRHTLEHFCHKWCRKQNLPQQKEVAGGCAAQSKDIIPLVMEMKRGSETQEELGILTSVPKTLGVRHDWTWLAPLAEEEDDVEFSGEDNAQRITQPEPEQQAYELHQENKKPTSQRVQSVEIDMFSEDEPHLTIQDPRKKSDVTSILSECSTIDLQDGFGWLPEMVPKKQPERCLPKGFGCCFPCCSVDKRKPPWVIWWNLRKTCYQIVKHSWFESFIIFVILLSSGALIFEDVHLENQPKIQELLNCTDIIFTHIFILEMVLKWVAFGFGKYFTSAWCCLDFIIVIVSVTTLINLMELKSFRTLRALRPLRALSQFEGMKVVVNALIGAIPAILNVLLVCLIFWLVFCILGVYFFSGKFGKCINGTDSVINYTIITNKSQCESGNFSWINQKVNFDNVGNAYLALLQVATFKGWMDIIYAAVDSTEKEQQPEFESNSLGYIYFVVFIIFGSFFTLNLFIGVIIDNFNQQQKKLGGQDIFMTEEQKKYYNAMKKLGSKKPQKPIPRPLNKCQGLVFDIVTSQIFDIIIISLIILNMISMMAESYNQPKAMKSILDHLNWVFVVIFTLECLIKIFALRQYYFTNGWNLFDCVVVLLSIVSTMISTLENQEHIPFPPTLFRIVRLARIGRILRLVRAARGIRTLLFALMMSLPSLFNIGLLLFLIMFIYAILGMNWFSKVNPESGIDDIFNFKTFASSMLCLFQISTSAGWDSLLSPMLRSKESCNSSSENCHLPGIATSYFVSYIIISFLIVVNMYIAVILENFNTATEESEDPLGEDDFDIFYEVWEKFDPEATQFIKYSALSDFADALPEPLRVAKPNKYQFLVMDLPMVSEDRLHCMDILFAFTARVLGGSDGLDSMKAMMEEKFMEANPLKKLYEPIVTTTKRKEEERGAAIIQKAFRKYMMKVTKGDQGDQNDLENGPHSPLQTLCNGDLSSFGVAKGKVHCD

For `NCC1(CC(=O)O)CCCCC1` [Gabapentin], the “share of patients in which the drug works” value (neuropathic pain) is given as 60%.
For `NC1=N[C@H](O)[C@H]2[C@H]3O[C@]4(O)O[C@@H]([C@@H](O)[C@@]2(N1)[C@@H]4O)[C@]3(O)CO` [TTX, tetrodotoxin], the IC50 (NaV1.1) is listed as 10 nM, the IC50 (NaV1.2) is listed as 10 nM and the IC50 (NaV1.3) is listed as 15 nM. The “block by TTX” value (NaV1.9) was “resistant to block”, the IC50 (NaV1.9; read-out: TTX IC50) was 1000 nM and the IC50 (NaV1.6) was 6 nM. The “block by TTX” value (NaV1.5) was “resistant to block”, the “block by TTX” value (NaV1.8) was “resistant to block” and the IC50 (NaV1.8; read-out: TTX IC50) was > 50000 nM.
